Literature values in patent US20160051475A1, “Sustained Release Composition Comprising an Amine as Active Agent and a Salt of a Cyclic Organic Acid” (Upsher-Smith Laboratories, Inc., priority 2010, published 2016).

- pKa: 9.7
SMILES: CC(=O)Nc1ccc(O)cc1 [acetaminophen]
